# Source: patent US6486128B1, “Method of using emamectin to treat fish parasites” (Schering-Plough Veterinary Corporation, priority 1999, dated 2002)
# What was measured:
# parasites = experiment: Sustained efficacy after emamectin treatment; format: in vivo
# [1] = Daily observation of fish for behavior, adverse drug reactions and mortalities (three studies); format: in vivo, Atlantic salmon, Salmo salar L.; conditions: at the dosage levels and dosage schedule of the invention
# Method: Fish were held in replicate groups in plastic fiber tanks, each with a volume of 0.54 m^3. Each tank was supplied with natural sea water at ambient temperature (7-14° C.) and salinity (30-35 ppt), at flow rates of approximately 18 l. min^−1. The tanks were fitted with mesh screens over the water outlet to retain uneaten fish pellets. Fish were observed daily for behavior and adverse drug reactions. Fish mortalities and the occurrence of gross sea lice damage were also recorded.
substance,measurement,setting,value
4″-deoxy-4″ epimethylaminoavermectin B1 [emamectin],sustained efficacy after treatment,parasites,8 to 10 weeks
same,toxicity to fish populations,[1],not toxic
